Measured values from publication PMC6153520, “Proteasome inhibition and mechanism of resistance to a synthetic, library-based hexapeptide” (Investigational New Drugs, 2018).
Where a SMILES comes first, the peptide text is derived from it. [ ]: non-standard residue; d: D form. The star is where a group is joined. His(τ-Bzl) = N[C@@H](Cc1cn(Cc2ccccc2)cn1)C(=O)O; Nle = CCCC[C@H](N)C(=O)O; NHBn = c1ccc(CN*)cc1; Bn = c1ccc(C*)cc1; OtBu = CC(C)(C)O*; tBu = CC(C)(C)*

What was measured:
THP1/BTZ (−100) cells = assay type: cell-based, human; details: 72 h
Method: (§1) Human monocytic/macrophage THP1 cells (ATTC, Manassas, USA) were cultured in RPMI-1640 medium supplemented with 5% fetal calf serum, 20 mM HEPES, 2 mM glutamine and 100 μg/ml penicillin/ streptomycin at 5% CO2 and 37 °C. Cell cultures were seeded at a density of 3 × 10^5 cells/ml and refreshed twice weekly. […] Some specific experiments also included THP1/BTZ100 cells that were cultured in the absence of BTZ for 6 months (further designated as THP1/BTZ (−100) cells). Mouse thymoma EL4 and human multiple myeloma H929 cells were cultured in RPMI-1640 medium supplemented with 8% fetal calf serum and 100 μg/ml penicillin/streptomycin at 5% CO2 and 37 °C.
(§2) Evaluation of drug sensitivity was carried out as described before. Cells were seeded at an initial density of 1.25 × 10^5 cells/ml in individual wells of a 24-well plate containing up to 50 μl of drug solutions. Inhibition of cell growth was determined after 72 h of incubation at 37 °C by determining the number of viable cells […] using trypan blue exclusion. The drug concentration required to inhibit cell growth by 50% compared to untreated controls was defined as the IC50.

THP1/BTZ100 = assay type: cell-based, human; details: 72 h
Method: as §1, §2

THP1/WT = assay type: cell-based, human
Method: as §1, §2

proteasome β5 subunit = assay: Western blot, proteasome subunit expression; assay type: cell-based, human; details: 10 μM 4A6, 24 h; THP1/WT, THP1/BTZ100 and THP1/BTZ (−100); densitometry
Method: (§3) Western blot analysis to determine protein levels of (i) β1, β2 and β5 proteasome subunits and (ii) the accumulation of ubiquitinated proteins after treatment with 4A6 was performed essentially as described previously. Cells were harvested in the mid-log phase of growth and washed 3 times with ice-cold buffered saline pH 7.4. Total cell lysates of 5 × 10^6 cells were prepared by resuspension in 500 μl lysis buffer containing: 50 mM Tris-HCl (pH 7.6), 5 mM dithiotreitol, 20 μl PIC (Protease Inhibitor Cocktail; 1 tablet/ml H2O), 20% glycerol and 0.5% NP-40. The suspension was sonicated (MSE sonicator, amplitude 7, for 3 × 5 s with 20 s time intervals at 4 °C) and centrifuged in an Eppendorf micro centrifuge (5 min, 12,000 rpm, 4 °C). Protein content of the supernatant was determined by the Bio-Rad protein assay. 20–30 μg of total cell lysates were fractionated on a 10% polyacrylamide gel containing SDS and transferred onto a PVDF membrane. The membranes were pre-incubated overnight at 4 °C in blocking buffer (5% Bio-Rad Blocker in TBS-T; 10 mM Tris-HCl, pH 8.0, 0.15 M NaCl, 0.1% Tween-20) to prevent non-specific antibody binding. After blocking, the membranes were incubated for 1 h at room temperature with primary antibodies for proteasome subunit β1 (1:1000, PW8140), β2 (1:1000, PW8145) and β5 (1:1000, PW8895) or ubiquitin (1:1000, Santa-Cruz, SC-8017). An antibody to α-tubulin was used (1:1000, Santa Cruz, sc-8035) to check and normalize for any loading differences. After 3 washing steps with TBS-T, the membranes were incubated for 1 h with HRP-labelled donkey-anti-rabbit (1:6000, Amersham, UK) or goat-anti-mouse (1:6000, Dako, Glostrup, Denmark) as secondary antibody. Detection of antibody binding was followed by chemoluminescence using Supersignal (Pierce Biotechnology, Rockford, USA) according to the manufacturers’ instructions. […] The signal intensity was determined densitometrically using Quantity One software (Bio-Rad) and was expressed relative to the intensity of the α-tubulin signal.

proteasome β2 subunit = assay: Western blot, proteasome subunit expression; assay type: cell-based, human; details: 0.1–10 μM, 24 h; THP1/WT, THP1/BTZ100, THP1/BTZ (−100)
Method: as §3

THP1/BTZ200 cells = assay: Apoptosis assay (Annexin-V/7-AAD flow cytometry); assay type: cell-based, human; details: 24 h, 4A6 over 0–25 μM
Method: (§4) Induction of apoptosis was analyzed by flow cytometry using APOPTEST™-FITC A700 (VPS Diagnostics, Hoeven, the Netherlands) according to the instructions of the manufacturer. In short, induction of apoptosis was determined after 24 h’ drug exposure. One million cells were harvested and washed 3 times with ice-cold PBS. The cell pellet was incubated for 30 min with 7-Amino-actinomycin D (7-AAD) on ice followed by incubation with Annexin-V according to the instructions of the manufacturer. Annexin-V (early apoptosis) and 7-AAD (late apoptosis) staining was measured by flow cytometry (Beckton & Dickinson, FACScalibur) and analysed using FCSexpress V3 software (Denovo software, Thornhill, Canada).

THP1/WT cells = assay: Apoptosis assay (Annexin-V/7-AAD flow cytometry); assay type: cell-based, human; details: 24 h exposure
Method: as §4

[1] = system: caspase-like proteasome activity; assay: Proteasome activity in THP1 cell extracts (fluorogenic substrate); assay type: biochemical, human; details: 1–100 μM, 1 h exposure
Method: (§5) Chymotrypsin-like, trypsin-like and caspase-like proteolytic activities of the proteasome were determined in freshly prepared cell lysates as described previously. Five million untreated or bortezomib-exposed THP1 cells were washed 3 times with ice-cold PBS and pelleted by centrifugation (5 min, 12,000 RPM, 4 °C). Cell pellets were then resuspended in an ATP-containing lysis buffer; 10 mM Tris-HCl buffer (pH 7.8) containing 5 mM ATP, 0.5 mM DTT and 5 mM MgCl2, and kept on ice for 10 min. For complete lysis, cells were sonicated (MSE sonicator, amplitude 7, for 3 × 5 s with 20 s time intervals at 4 °C) followed by centrifugation (5 min, 12,000 RPM, 4 °C) to remove cell debris. The supernatant was collected and protein concentration was determined using the Bio-Rad protein assay. […] The release of amc (7-amino-4-methyl-coumarin) was monitored online over a 2-h time period at 37 °C with 5 min intervals. Fluorescence was measured on a Tecan SpectraFluor apparatus (Giessen, The Netherlands) using excitation and emission wavelengths of 360 and 465 nm, respectively. Proteolytic activity was calculated from the slopes of the linear portion of the curves. All results were expressed as percentage relative to untreated THP1/WT cells (100%). […]

[2] = system: trypsin-like proteasome activity; assay: as above; assay type: biochemical, human; details: 1–100 μM, 1 h exposure
Method: as §5

IC50 (THP1/BTZ (−100) cells): 10 µM | IC50 (THP1/BTZ100): > 25 µM | IC50 (THP1/WT; 72 h): 0.26 ± 0.06 µM
Compound: CCCC[C@H](NC(=O)[C@@H](NC(=O)[C@H](Cc1cn(Cc2ccccc2)cn1)NC(=O)[C@@H](NC(C)=O)[C@@H](C)OC(C)(C)C)[C@@H](C)OCc1ccccc1)C(=O)N[C@@H](CCC(=O)OC(C)(C)C)C(=O)NCC(=O)NCc1ccccc1 [4A6, Ac-Thr(tBu)-His(Bzl)-Thr(Bzl)-Nle-Glu(OtBu)-Gly-Bza] (Ac-T(tBu)[His(τ-Bzl)]T(Bn)[Nle]E(OtBu)G-NHBn)
[Resistance Factor] THP1/BTZ100 (THP1/BTZ100; relative to IC50 in THP1/WT): 117 | [Resistance Factor] THP1/WT (THP1/WT; reference value in square brackets): 1 | increase in β5 subunit induction vs drug-free controls (proteasome β5 subunit): 3–5 fold | effect on expression of the β2 proteasome subunit (proteasome β2 subunit): No significant effects | induction of apoptosis (THP1/BTZ200 cells): none | induction of apoptosis (THP1/WT cells): efficient induction of apoptosis | inhibitory effect on caspase-like activity [1]: no inhibitory effect | inhibitory effect on trypsin-like activity [2]: no inhibitory effect
